{
  "source": "patent US6297216A",
  "about": "“Compounds for reversing drug resistance” (Solvo Biotechnology, priority 1997, dated 2001)",
  "key": {"[1]": {"tested_on": "multidrug-resistant human tumor cell lines", "assay": "Enhancement of cytotoxicity of drugs in multidrug-resistant human tumor cell lines", "type": "cell-based", "conditions": "K562 MDR and KBV1 sublines, FIGS. 10-11", "procedure": "(§1) NIH 3T3 cells were cultured under standard conditions in D-MEM medium. MDR1-transfected cells (NIH MDR1 G185) were prepared and characterized for their drug-resistant properties as described (Ambdukar et al. Proc. Natl. Acad. Sci. USA 89:8472-8476, 1992; Bruggemann et al. J. Biol. Chem. 267:21020-21026, 1992; Sarkadi et al. 1992 supra). Before each experiment the cells were trypsinized, then washed and stored in D-MEM medium at 37° C. KBV1 (MDR1^+) and KB3 (MDR1^-) human tumor cells were also cultured in D-MEM, which K562 human tumor cells were grown in RPMI medium, supplemented with 10% FCS.\nAnother method for assessing the ability of Reversins to inhibit drug resistance is to measure the cytotoxicity of drugs in multidrug-resistant human tumor cell lines. Since MDR1 normally lowers the concentration of cytotoxic agents to subtoxic concentrations by extruding them from the cell, inhibition of MDR1 would be expected to enhance cytotoxicity.\nIn these studies, adriamycin, vincristine, and vinblastine, in originally ineffective concentrations, become effectively cytotoxic in the presence of 1-10 μg/ml of Reversins 121 or 205. FIGS. 10A and 10B present such an experiment for Reversin 205 using K562 human erythroblastoid tumor cells and their adriamycin-selected multidrug-resistant subline. […]"}, "[2]": {"assay": "In vivo acute and subacute toxicity", "set-up": "species or system rat", "conditions": "rats, two-week follow-up", "procedure": "The safety of Reversins for human administration can be confirmed in appropriate animal models. For example, the in vivo acute and subacute toxicity of Reversins was examined in laboratory rats. Reversins 121 and 205 solutions were prepared and administered as follows. Type A solutions contained 50 μg/ml Reversin 121 or 205 in 20% ethanol in physiological saline. Type B solutions contained 1 mg/ml in glycerol, containing 10% ethanol. Type A solutions (0.5 ml) were administered intravenously to three laboratory rats weighing 200-250 g each (about 100-125 μg/kg) twice daily for 3 days. Type B solutions (0.5 ml) were given to similar rats (2-2.5 mg/kg) by intraperitoneal injection, twice daily for three days. Control rats received the same solutions without the Reversins."}, "MDR1 [3]": {"biological_target": "T1, MDR1 (Homo sapiens, UniProt P08183)", "T1 sequence (P08183 whole entry)": "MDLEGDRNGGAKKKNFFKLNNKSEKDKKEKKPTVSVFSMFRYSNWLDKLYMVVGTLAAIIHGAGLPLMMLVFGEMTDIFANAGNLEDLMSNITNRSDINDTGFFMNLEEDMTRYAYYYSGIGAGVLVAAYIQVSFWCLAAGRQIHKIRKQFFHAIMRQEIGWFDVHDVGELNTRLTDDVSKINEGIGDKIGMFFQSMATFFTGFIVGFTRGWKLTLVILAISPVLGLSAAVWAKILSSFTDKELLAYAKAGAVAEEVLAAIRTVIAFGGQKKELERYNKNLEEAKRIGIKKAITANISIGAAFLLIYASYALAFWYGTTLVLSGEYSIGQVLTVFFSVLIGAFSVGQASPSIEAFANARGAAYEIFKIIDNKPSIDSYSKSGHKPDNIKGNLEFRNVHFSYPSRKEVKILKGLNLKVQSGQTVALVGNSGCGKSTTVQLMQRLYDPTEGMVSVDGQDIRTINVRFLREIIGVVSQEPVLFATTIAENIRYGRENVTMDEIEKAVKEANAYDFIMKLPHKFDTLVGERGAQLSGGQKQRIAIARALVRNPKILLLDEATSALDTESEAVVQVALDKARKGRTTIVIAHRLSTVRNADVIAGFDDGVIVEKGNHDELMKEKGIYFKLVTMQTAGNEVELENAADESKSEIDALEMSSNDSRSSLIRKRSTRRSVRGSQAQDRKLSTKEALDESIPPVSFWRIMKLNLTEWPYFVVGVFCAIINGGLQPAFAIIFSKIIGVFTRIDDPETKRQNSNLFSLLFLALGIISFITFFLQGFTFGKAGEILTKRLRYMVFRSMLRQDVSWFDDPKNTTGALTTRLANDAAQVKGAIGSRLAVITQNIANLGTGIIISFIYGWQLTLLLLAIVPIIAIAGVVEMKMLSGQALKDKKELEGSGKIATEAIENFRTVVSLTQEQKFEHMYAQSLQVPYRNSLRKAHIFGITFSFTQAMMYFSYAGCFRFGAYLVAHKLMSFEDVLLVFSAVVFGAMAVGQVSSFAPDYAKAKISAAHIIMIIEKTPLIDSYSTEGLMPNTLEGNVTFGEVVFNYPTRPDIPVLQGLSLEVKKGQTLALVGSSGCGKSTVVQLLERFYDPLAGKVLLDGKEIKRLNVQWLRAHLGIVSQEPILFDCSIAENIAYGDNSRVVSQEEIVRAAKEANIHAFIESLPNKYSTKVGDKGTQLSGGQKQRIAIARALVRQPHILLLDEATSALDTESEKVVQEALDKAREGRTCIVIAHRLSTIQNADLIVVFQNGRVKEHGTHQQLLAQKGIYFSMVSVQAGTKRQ"}, "MDR1 [4]": {"biological_target": "T1, MDR1", "remark": "listed apart in the source", "source_text": "(§5) The second assay is based on the measurement of fluorescent dye uptake into intact cells. […] These hydrophobic dye esters are non-fluorescent outside the cell are cleaved by intracellular esterases into hydrophilic fluorescent free acids."}, "MDR1 [5]": {"biological_target": "T1, MDR1", "assay": "Flow-cytometric fluorescent dye uptake in multidrug-resistant leukocytes of a leukemic patient", "type": "cell-based", "set-up": "endogenous in cells; host or cells: white blood cells isolated from the blood of a leukemic patient", "conditions": "5 μM, 37° C., 10 minutes, FIG. 8", "procedure": "Fluorescence measurements were done in 60 sec scanning periods using a Cytoronabsolut instrument (Ortho Diagnostic Systems, NJ). The excitation was set to 488 nm. Green fluorescence was measured with a filter with a range of 515-548 nm, while red fluorescence was measured above 620 nm.\nBy using the some fluorescent dye extrusion assay described above the in vitro effects of Reversins on the multidrug-resistant leukocytes of a leukemic patient were studied. Cells were isolated by withdrawing blood from the patient, and isolating white blood cells by centrifugation. Cells can be isolated from other types of tumors by biopsy. A flow cytometer was used to measure fluorescent dye loading of individual cells, which had been previously shown to express MDR1, in the absence or presence of Reversin 205 (FIG. 8). The uptake of fluorescent dye under these conditions models the uptake of cytotoxic drugs into the tumor cells. Fluorescent dye uptake was measured at 37° C. for 10 minutes. […] Further details for the method are provided by Hollo et al., supra."}, "control NIH 3T3 cells": {"tested_on": "control NIH 3T3 cells", "assay": "Fluorescent dye accumulation in fibroblasts which do not overexpress MDR1", "type": "cell-based, mouse", "conditions": "fibroblasts which do not overexpress MDR1, FIG. 6", "procedure": "NIH 3T3 cells were cultured under standard conditions in D-MEM medium. […] Before each experiment the cells were trypsinized, then washed and stored in D-MEM medium at 37° C. KBV1 (MDR1^+) and KB3 (MDR1^-) human tumor cells were also cultured in D-MEM, which K562 human tumor cells were grown in RPMI medium, supplemented with 10% FCS.\nHuman MDR1-transfected mouse fibroblasts and MDR1-expressing human tumor cells actively extrude the AM forms of several fluorescent indicators, lowering the level of intracellular fluorescence in cells with active multidrug transport.\nDye uptake was measured by incubating 2×10^6 cells/ml D-MEM medium at 37° C. in the presence of 0.5 μM Fura-2 AM (added in 5 mM stock solution in DMSO), then rapidly spinning the cells (15 sec, 12,000×g), and rinsing the pellet with HPM1 medium (containing 120 mM NaCl, 5 mM kcl, 0.4 mM MgCl2, 0.04 mM CaCl2, 10 mM HEPES-Na (pH 7.4), 10 mM NaHCO3, 10 mM glucose, and 5 mM Na2 HPO4). The cells were resuspended in 2 ml HPM1 and fluorescence was measured with rapid stirring in a Hitachi F-4000 fluorescent spectrophotometer. The excitation wavelength was 340 nm, and emission was measured at 410 nm. Maximum fluorescence and dye concentration were measured after the addition of 0.5% Triton X-100 and 2 mM CaCl2 to the medium. The dye concentration was calibrated based on the measurements of free acid dye fluorescence in the same instrument under identical conditions."}, "MDR1 [6]": {"biological_target": "T1, MDR1", "assay": "Fluorescent dye (Fura-2 AM) extrusion assay in MDR1-transfected NIH 3T3 fibroblasts", "conditions": "MDR1-expressing fibroblasts, FIG. 6", "source_text": "as §5"}, "control P388 cells": {"tested_on": "control P388 cells", "assay": "Mouse P388 leukemia model, survival", "type": "in vivo", "conditions": "1 mg/kg/day for 6 days, mice injected with control P388 cells", "from_the_text": "(§2) In vivo animal studies for the effectiveness of Reversins can be conducted using any suitable animal model system known to those skilled in the art. One example of an appropriate system is the mouse P388 leukemia model system (Tsurouo et al., supra). This animal model is widely accepted for testing the effect of cytotoxic antileukemic agents or response-modifier compounds.\n(§3) Inbred (DBA×black F1) mice received 10^6 P388 leukemia cells by intraperitoneal injection. The survival of the mice was followed. The mice were injected with control P388 cells, as well as with P388 cells that had been selected under drug exposure. Drug exposure induced over-expression of the MDR1 protein (P388-MDR cells).\n(§4) The mice injected with the P388 cells were treated with doxorobicin (adriamycin) in a dose of 1 mg/kg/day for 6 days after the injection of the P388 cells. […] Reversin can be administered to the animals in a dose of 2 mg/kg, a level which has no toxic effect on the control animals, as discussed above."}, "P388-MDR cells": {"tested_on": "P388-MDR cells", "assay": "Mouse P388-MDR leukemia model, survival", "type": "in vivo", "conditions": "1 mg/kg/day for 6 days, mice injected with P388-MDR cells", "from_the_text": "as §2, §3, §4"}, "KBV1 cells": {"tested_on": "KBV1 cells", "assay": "Cytotoxicity of Reversin alone in multidrug-resistant KBV1 cells", "type": "cell-based, human", "conditions": "MDR1-expressing cells, FIG. 11(A)", "procedure": "as §1\nIn these studies, adriamycin, vincristine, and vinblastine, in originally ineffective concentrations, become effectively cytotoxic in the presence of 1-10 μg/ml of Reversins 121 or 205. FIGS. 10A and 10B present such an experiment for Reversin 205 using K562 human erythroblastoid tumor cells and their adriamycin-selected multidrug-resistant subline. FIGS. 11A and 11B are similar experiments with the […] tumor cells KB3 and KBV1, the latter being a multidrug resistant subline. […] Such a collateral toxic effect (which may be due to the ATP-consuming futile functioning of the drug transporter) can be greatly advantageous in treating drug-resistant tumors."}, "[7]": {"conditions": "intraperitoneal, 2-2.5 mg/kg twice daily for three days"}, "[8]": {"conditions": "intravenous, about 100-125 μg/kg twice daily for 3 days"}},
  "note": "Read-outs that look alike come from different tables or passages of the source. Peptide text beside a SMILES is read from it. * marks the point of attachment. Cbz = O=C(OCc1ccccc1)*; Boc = CC(C)(C)OC(=O)*; OBn = c1ccc(CO*)cc1; OtBu = CC(C)(C)O*",
  "data": [
    {"smiles": "COC(=O)[C@H](CCCCNC(=O)[C@H](CCC(=O)OCc1ccccc1)NC(=O)OC(C)(C)C)NC(=O)[C@H](CCC(=O)OCc1ccccc1)NC(=O)OC(C)(C)C", "note": "[Reversin 205, N^α, N^ε -bis[BOC-Glu(OBzl)]-Lys-OMe]", "values": [
      {"measurement": "Reversin concentration at which originally ineffective adriamycin, vincristine and vinblastine become effectively cytotoxic", "setting": "[1]", "result": "1 to 10", "unit": "µg/mL"},
      {"measurement": "acute or subacute toxicity", "setting": "[2]; [7]", "result": "no acute or subacute toxicity"},
      {"measurement": "acute or subacute toxicity", "setting": "[2]; [8]", "result": "no acute or subacute toxicity"},
      {"measurement": "concentration giving strong inhibition of the MDR1-ATPase", "setting": "MDR1 [3]", "result": "above 1 μM"},
      {"measurement": "half-maximal activating concentration (Ka) of MDR1-ATPase", "setting": "MDR1 [3]", "result": "about 30 nM"},
      {"measurement": "stimulation of MDR1-ATPase", "setting": "MDR1 [3]", "result": "greatly stimulated"},
      {"measurement": "inhibition of Fura2-AM dye extrusion", "setting": "MDR1 [4]", "result": "inhibit this dye extrusion"},
      {"measurement": "dye extrusion by MDR1", "setting": "MDR1 [5]", "result": "blocked dye extrusion"},
      {"measurement": "fluorescent dye uptake", "setting": "MDR1 [5]", "result": "significantly increased"}
    ]},
    {"smiles": "[Na+].[Na+].[Na+].[O]=[V]([O-])([O-])[O-]", "note": "[sodium orthovanadate]", "values": [
      {"measurement": "effect on dye accumulation", "setting": "control NIH 3T3 cells", "result": "no effect"},
      {"measurement": "block of MDR1-specific dye-AM extrusion", "setting": "MDR1 [6]", "result": "blocked"}
    ]},
    {"smiles": "COc1ccc(CCN(C)CCCC(C#N)(c2ccc(OC)c(OC)c2)C(C)C)cc1OC", "note": "(centres unmarked) [verapamil]", "values": [
      {"measurement": "effect on dye accumulation", "setting": "control NIH 3T3 cells", "result": "no effect"}
    ]},
    {"smiles": "C=C[C@H]1C[N@@]2CC[C@H]1C[C@H]2[C@H](O)c1ccnc2ccc(OC)cc12", "note": "[quinine, reference compound]", "values": [
      {"measurement": "stimulation of MDR1-ATPase", "setting": "MDR1 [3]", "result": "stimulated"}
    ]},
    {"smiles": "COc1cccc2c1C(=O)c1c(O)c3c(c(O)c1C2=O)C[C@@](O)(C(=O)CO)C[C@@H]3O[C@H]1C[C@H](N)[C@H](O)[C@H](C)O1", "note": "[adriamycin]", "values": [
      {"measurement": "survival time", "setting": "control P388 cells", "result": "> 30", "unit": "days"},
      {"measurement": "prolongation of lifetime", "setting": "P388-MDR cells", "result": "did not significantly prolong"}
    ]},
    {"smiles": "CC[C@]1(O)C[C@H]2CN(CCc3c([nH]c4ccccc34)[C@@](C(=O)OC)(c3cc4c(cc3OC)N(C=O)[C@H]3[C@@](O)(C(=O)OC)[C@H](OC(C)=O)[C@]5(CC)C=CCN6CC[C@]43[C@@H]65)C2)C1", "note": "[vincristine, reference compound]", "values": [
      {"measurement": "effect on dye accumulation", "setting": "control NIH 3T3 cells", "result": "no effect"},
      {"measurement": "stimulation of MDR1-ATPase", "setting": "MDR1 [3]", "result": "stimulated"},
      {"measurement": "block of MDR1-specific dye-AM extrusion", "setting": "MDR1 [4]", "result": "blocked"},
      {"measurement": "inhibition of Fura2-AM dye extrusion", "setting": "MDR1 [4]", "result": "inhibit this dye extrusion"}
    ]},
    {"smiles": "CC(C)(C)OC(=O)N[C@@H](CC(=O)OCc1ccccc1)C(=O)N[C@@H](CCCCNC(=O)OCc1ccccc1)C(=O)OC(C)(C)C", "note": "[Reversin 121, BOC-Asp(OBzl)-Lys(Z)-OtBu] (Boc-Asp(OBn)-Lys(Cbz)-OtBu)", "values": [
      {"measurement": "Reversin concentration at which originally ineffective adriamycin, vincristine and vinblastine become effectively cytotoxic", "setting": "[1]", "result": "1 to 10", "unit": "µg/mL"},
      {"measurement": "cytotoxicity without vinblastine", "setting": "KBV1 cells", "result": "cytotoxic"},
      {"measurement": "acute or subacute toxicity", "setting": "[2]; [7]", "result": "no acute or subacute toxicity"},
      {"measurement": "acute or subacute toxicity", "setting": "[2]; [8]", "result": "no acute or subacute toxicity"},
      {"measurement": "half-maximal activating concentration (Ka) of MDR1-ATPase", "setting": "MDR1 [3]", "result": "approximately 60 nM"},
      {"measurement": "stimulation of MDR1-ATPase", "setting": "MDR1 [3]", "result": "greatly stimulated"},
      {"measurement": "inhibition of Fura2-AM dye extrusion", "setting": "MDR1 [4]", "result": "inhibit this dye extrusion"}
    ]}
  ]
}
